Experimental data: patent publication US11512089B2, “Substituted [1,2,4]triazolo[3,4-a]phthalazines as modulators of GABAA receptor activity” (SHANGHAI SIMR BIOTECHNOLOGY CO., LTD, priority 2018, dated 2022)
Converted amounts (≈) assume the structure as drawn.

Tests used:
[1] = Thermodynamic solubility in 50 mM phosphate buffer pH 7.4; assay type: physicochemical; conditions: aqueous buffer, thermodynamic from solid, 50 mM phosphate buffer pH 7.4, room temperature
Procedure: (§1) 50 mM phosphate buffer pH=7.4: 0.39 g of NaH2PO4.2H2O, and 1.4025 g of Na2HPO4 were weighted and placed in an erlenmeyer flask, 240 mL of water was added. The solid was dissolved and mixed thoroughly, the pH value was adjusted to 7.4 with 10M NaOH solution, and the resulting solution was transferred to a 250 mL volumetric flask, followed by adding water to the mark.
(§2) Waters e2695 HPLC high performance liquid chromatography, Mettler XSE105 analytical balance.
(§3) Firstly, a 10 mM stock solution with DMSO as the solvent was prepared, and was diluted with a diluent (ACN: PB buffer 50:50) into 1 μM-200 μM as standard solution.
Thermodynamic solubility. About 1 mg of the sample was weighted, 1.5 mL of 50 mM phosphate buffer (pH 7.4) was added thereto, and the mixture was shaken at room temperature for 24 hours to ensure that the solution reached a state of saturation. The solution was then filtered, and the filtrate was tested with high-performance liquid chromatography (UV).

[2] = Kinetic solubility in 50 mM phosphate buffer pH 7.4; assay type: physicochemical; conditions: aqueous buffer, kinetic from dmso stock, 50 mM phosphate buffer pH 7.4, 2% DMSO, room temperature
Procedure: as §1, §2, §3
Kinetic solubility. 30 μL of the stock solution was placed in a 2 mL centrifuge tube, 1470 μL of 50 mM phosphate buffer (pH 7.4) (containing DMSO at a final concentration of 2%) was added. The mixture was shaken at room temperature (1000 rpm/min) for 24 hours, and then filtered. The filtrate was tested by high performance liquid chromatography (UV).

[3] = biological target: T1, α5-GABAA receptor (Homo sapiens, UniProt P18507+P31644); experiment: Whole cell patch clamp, inverse agonism efficacy on GABA-induced current in HEK-293 cells expressing α5-GABAA receptor; assay type: cell-based; conditions: HEK293; compound 100 nM, GABA 0.05 μM; ratio to reference compound Example 7 in CN106854207A in the same batch
T1 construct: expressed in transfected cells; host or cells: HEK-293 (monoclonal, stably transfected)
T1 sequence (P31644 32-462): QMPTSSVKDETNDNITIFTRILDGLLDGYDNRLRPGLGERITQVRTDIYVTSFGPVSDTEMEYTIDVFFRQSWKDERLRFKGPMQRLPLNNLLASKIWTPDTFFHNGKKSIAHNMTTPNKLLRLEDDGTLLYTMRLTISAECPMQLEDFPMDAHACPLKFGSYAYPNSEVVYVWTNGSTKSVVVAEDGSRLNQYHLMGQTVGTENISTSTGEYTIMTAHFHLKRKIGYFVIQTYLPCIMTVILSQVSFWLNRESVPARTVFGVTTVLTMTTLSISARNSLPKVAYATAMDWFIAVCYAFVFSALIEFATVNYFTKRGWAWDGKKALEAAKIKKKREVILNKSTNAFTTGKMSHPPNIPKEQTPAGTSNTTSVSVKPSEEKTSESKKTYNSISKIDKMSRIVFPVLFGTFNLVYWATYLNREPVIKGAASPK
T1 sequence (P28472 26-473 partner): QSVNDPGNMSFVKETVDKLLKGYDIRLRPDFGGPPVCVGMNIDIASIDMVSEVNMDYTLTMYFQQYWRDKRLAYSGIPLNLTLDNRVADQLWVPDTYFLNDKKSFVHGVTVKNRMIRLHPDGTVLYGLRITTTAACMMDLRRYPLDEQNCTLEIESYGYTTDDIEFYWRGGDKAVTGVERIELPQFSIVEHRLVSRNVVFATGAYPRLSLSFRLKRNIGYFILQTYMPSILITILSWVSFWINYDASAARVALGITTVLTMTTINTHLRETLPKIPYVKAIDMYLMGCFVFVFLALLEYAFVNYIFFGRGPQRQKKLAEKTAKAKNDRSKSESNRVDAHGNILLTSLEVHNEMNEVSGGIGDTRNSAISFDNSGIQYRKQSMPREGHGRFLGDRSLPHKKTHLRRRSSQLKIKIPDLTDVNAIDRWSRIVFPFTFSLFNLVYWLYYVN
T1 sequence (P18507 40-467 isoform P18507-1 limits assumed): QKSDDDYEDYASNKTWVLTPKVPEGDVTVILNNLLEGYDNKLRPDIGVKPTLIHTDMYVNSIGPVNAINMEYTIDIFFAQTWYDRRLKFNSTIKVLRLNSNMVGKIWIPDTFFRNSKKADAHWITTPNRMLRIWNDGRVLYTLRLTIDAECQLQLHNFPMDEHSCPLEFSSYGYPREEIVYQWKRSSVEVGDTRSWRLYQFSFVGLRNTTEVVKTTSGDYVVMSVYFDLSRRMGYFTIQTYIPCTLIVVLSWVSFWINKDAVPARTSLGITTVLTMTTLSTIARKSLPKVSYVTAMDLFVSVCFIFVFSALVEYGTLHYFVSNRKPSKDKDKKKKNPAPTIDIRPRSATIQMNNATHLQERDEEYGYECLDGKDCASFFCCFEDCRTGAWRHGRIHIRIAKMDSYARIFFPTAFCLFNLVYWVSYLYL
Procedure: The inventors used electrophysiological methods to determine the inverse agonist efficacy of the substances to be tested. The detailed procedures are as follows:
(1) Different subunits of GABAA receptors were expressed in human embryonic kidney cells 293 (HEK293). The cells were cultured in a culture medium and used as a cell model for screening potential analgesics. The α, β and γ subunits are necessary to form complete functional GABAA receptors. In this example, the inventors have established the following cell model: (a) α5 subunit (protein sequence is GenBank accession number: NM_000810.3), (33 subunit (protein sequence is GenBank accession number: NM_000814.5) and γ2 subunit (protein sequence is GenBank accession number: NM_000816.3) were expressed in HEK-293 cell line at the same time, followed by screening the monoclonal cell line. This cell line contained α5-GABAA receptor and had complete GABAA receptor function.
(2) The monoclonal stably transfected HEK-293 cells expressing α5-GABAA receptor were cultured in 10 cm culture dishes. The cells were passaged after reaching 80-90% confluence. During passaging, the culture medium was removed and discarded, 3 mL of DPBS (phosphate buffered saline, Gibco™) was added to the dishes, the dishes were shaken slightly, and DPBS was removed and discarded. 1 mL of trypsin (TrypLE Express, Gibco™) was added and the cells were digested at 37° C. for 1-2 minutes. Then 3 mL of complete medium (DMEM+10% FBS (Gibco™)) was added and the cells at the bottom of the culture dishes were dispersed. The cell suspension were transferred to a 15 mL centrifugal tube (Corning™) and then centrifuged at 200 g for 3 minutes. The supernatant was discarded, 4 mL of complete medium was added, and the cells were resuspended by gently blowing. The cell suspension was diluted by 1:5 or 1:10 for subculturing. The cell suspension was diluted by 1:12 for electrophysiology experiment, and added to a 24 well plate (Corning™) with a glass slide pre-treated with poly-D-lysine placed thereon; the experiment was initiated after the cells were adhered to the slide. The cells for electrophysiology experiment were maintained in culture for no more than 48 hours before use.
(3) Compound concentration: for screening, all compounds were diluted to a final concentration of 100 nM and the concentration of GABA was 0.05 μM. The compounds were at the concentration of 0.3 nM, 3 nM, 10 nM, 30 nM, 100 nM and 300 nM in dose-inverse agonism efficacy (%) experiment. The whole cell patch clamp technique was used in electrophysiology experiments, which can refer to the literature (I. Lecker, Y. Yin, D. S. Wang and B. A. Orser, (2013) Potentiation of GABAA receptor activity by volatile anaesthetics is reduced by α5-GABAA receptor-preferring inverse agonists, British Journal of Anaesthesia 110 (S1): i73-i81). The extracellular solution (ECS) contained: 150 mM NaCl, 5 mM KCl, 2.5 mM CaCl2, 1 mM MgCl2, 10 mM HEPES and 10 mM glucose (pH 7.4); Patch electrodes were filled with an intracellular solution containing: 140 mM CsCl, 11 mM EGTA, 10 mM HEPES, 2 mM CaCl2, 1 mM MgCl2, 4 mM MgATP, 2 mM TEA (pH 7.3). The currents were recorded by an EPC-10 amplifier and the PatchMaster software (HEKA). Patch electrodes with a resistance of 4-6 MΩ were pulled from borosilicate glass. The ALA-VC3-8PP™ system was used for extracellular administration. Separate cells that grew independently was selected for recording. During recording, the membrane voltage was clamped at −60 mV. During experiment, the cells were firstly perfused with ECS for 20 seconds. When the baseline reached to a stable state, the cells were then perfused with GABA solution. Then the current induced by GABA could be detected. After about 20 to 40 seconds, the current was stable. ECS was switched to compounds solution and the effects of the compounds were detected. At last, the perfusion solution was switched to ECS. […]

[4] = Pharmacokinetic experiment on rats, oral; assay type: in vivo; conditions: rat; male SD rats, po 1 mg/kg, 50% PEG400/50% water, plasma
Procedure: In the pharmacokinetic experiment on rats, the maximum drug concentration (Cmax) in the blood was determined to evaluate the absorption of the compounds in rats. All rats fasted overnight before administration; the test compounds were dissolved and administered orally (po, intragastric administration) to male SD rats, with 3 rats in each group. After administration of the test compounds, blood was collected by jugular vein puncture at […] with 0.25 mL per sample. The plasma drug concentration was determined by LC-MS/MS method, and the pharmacokinetic parameters were calculated by Phoenix WinNonlin7.0. The dose was 1 mg/kg, and the menstruum was 50% PEG400/50% water.

| solubility thermodynamic at 24 h [1] [µg/mL] | solubility kinetic at 24 h [2] [µg/mL] | Emax at 0.1 µM [3] [%] | Cmax [4] [ng/mL] | SMILES |
| --- | --- | --- | --- | --- |
| < 0.46 | < 0.46 | – | – | Cc1cc(-c2nnc3c4ccccc4c(OCc4ccc(C(=O)NCC(F)F)cn4)nn23)no1 [reference compound] |
| 1.8 (≈ 4.06 µM) | 2.2 (≈ 4.96 µM) | – | – | Cc1cc(-c2nnc3c4ccccc4c(OCc4ccc(C(=O)NC(C)C)cn4)nn23)no1 [reference compound] |
| 1.7 (≈ 3.61 µM) | 1.95 (≈ 4.14 µM) | – | – | Cc1cc(-c2nnc3c4ccccc4c(OCc4ccc(C(=O)N5CCOCC5)cn4)nn23)no1 [drawing 171, reference compound] |
| 84.7 (≈ 184 µM) | 91.9 (≈ 200 µM) | 72.1 | – | COCc1cc(-c2nnc3c4ccccc4c(OCc4ccc(C(=O)N(C)C)cn4)nn23)no1 [Compound 37] |
| – | – | – | 22.4 | Cc1cc(-c2nnc3c4ccccc4c(OCc4ccc(C(=O)N5CCOCC5)cn4)nn23)no1 [drawing 175, reference compound] |
| 0.74 (≈ 1.49 µM) | 1.39 (≈ 2.81 µM) | – | – | COCc1cc(-c2nnc3c4ccccc4c(OCc4ccc(C(=O)NCC(F)F)cn4)nn23)no1 [Compound 24] |
| – | – | – | 19 | CCNC(=O)c1ccc(COc2nn3c(-c4cc(C)on4)nnc3c3ccccc23)nc1 [drawing 173, reference compound] |
| – | – | – | 24.7 | CCNC(=O)c1ccc(COc2nn3c(-c4cc(COC)on4)nnc3c3ccccc23)nc1 [drawing 172] |
| 4.4 (≈ 8.22 µM) | 4.6 (≈ 8.59 µM) | – | – | COCc1cc(-c2nnc3c4ccccc4c(OCc4ccc(C(=O)N5CCC(F)(F)CC5)cn4)nn23)no1 [Compound 34] |
| – | – | – | 48 | COCc1cc(-c2nnc3c4ccccc4c(OCc4ccc(C(=O)N5CCOCC5)cn4)nn23)no1 [drawing 174] |
| 3.39 (≈ 7.38 µM) | 8.02 (≈ 17.5 µM) | 78 | – | CCNC(=O)c1ccc(COc2nn3c(-c4cc(COC)on4)nnc3c3ccccc23)nc1 [Compound 02, N-ethyl-6-[3-(5-methoxymethyl-isoxazol-3-yl)-[1,2,4]triazolo[3,4-a]phthalazin-6-yloxymethyl]-nicotinamide] |
| 0.98 (≈ 1.94 µM) | 0.97 (≈ 1.92 µM) | – | – | Cc1cc(-c2nnc3c4ccccc4c(OCc4ccc(C(=O)N5CCC(F)(F)CC5)cn4)nn23)no1 [reference compound] |
| 0.82 (≈ 1.86 µM) | 2.16 (≈ 4.89 µM) | – | – | Cc1cc(-c2nnc3c4ccccc4c(OCc4ccc(C(=O)NC5CC5)cn4)nn23)no1 [reference compound] |
| 0.84 (≈ 1.64 µM) | 0.77 (≈ 1.5 µM) | – | – | COCc1cc(-c2nnc3c4ccccc4c(OCc4ccc(C(=O)NCC(F)(F)F)cn4)nn23)no1 [Compound 15, N-(2,2,2-trifluoroethyl)-6-((3-(5-methoxymethylisoxazol-3-yl)-[1,2,4]triazolo[3,4-a]phthalazin-6-oxy)methylene)nicotinamide] |
| 4.4 (≈ 9.29 µM) | 9.23 (≈ 19.5 µM) | 106 | – | COCc1cc(-c2nnc3c4ccccc4c(OCc4ccc(C(=O)NC(C)C)cn4)nn23)no1 [Compound 11, N-isopropyl-6-[3-(5-methoxymethyl-isoxazol-3-yl)-[1,2,4]triazolo[3,4-a]phthalazin-6-yloxymethyl]-nicotinamide] |
| 8.7 (≈ 17.3 µM) | 17.8 (≈ 35.4 µM) | 93.4 | – | COCc1cc(-c2nnc3c4ccccc4c(OCc4ccc(C(=O)N5CCOCC5)cn4)nn23)no1 [Compound 38, {6-[3-(5-methoxymethyl-isoxazol-3-yl)-[1,2,4]triazolo[3,4-a]phthalazin-6-yloxymethyl]-pyridin-3-yl}-morpholin-4-methanone] |
| 1.5 (≈ 3.26 µM) | 0.92 (≈ 2 µM) | – | – | COCCNC(=O)c1ccc(COc2nn3c(-c4cc(C)on4)nnc3c3ccccc23)nc1 [reference compound] |
| – | 13.6 (≈ 26.4 µM) | 74.9 | – | COCc1cc(-c2nnc3c4ccccc4c(OCc4ccc(C(=O)NC[C@@H]5CCCO5)cn4)nn23)no1 [Compound 06, (S)-6-[3-(5-methoxymethyl-isoxazol-3-yl)-[1,2,4]triazolo[3,4-a]phthalazin-6-yloxymethyl]-N-(tetrahydro-furan-2-ylmethyl)-nicotinamide] |
| – | 18.9 (≈ 37.6 µM) | 103 | – | COCc1cc(-c2nnc3c4ccccc4c(OCc4ccc(C(=O)NC(C)COC)cn4)nn23)no1 (stereo not shown) [Compound 10, N-(2-methoxy-1-methyl-ethyl)-6-[3-(5-methoxymethyl-isoxazol-3-yl)-[1,2,4]triazolo[3,4-a]phthalazin-6-yloxymethyl]-nicotinamide] |
| 9.05 (≈ 19.2 µM) | 10.9 (≈ 23.1 µM) | 94 | – | COCc1cc(-c2nnc3c4ccccc4c(OCc4ccc(C(=O)NC5CC5)cn4)nn23)no1 [Compound 12, N-cyclopropyl-6-[3-(5-methoxymethyl-isoxazol-3-yl)-[1,2,4]triazolo[3,4-a]phthalazin-6-yloxymethyl]-nicotinamide] |
| 6.02 (≈ 12 µM) | 5.89 (≈ 11.7 µM) | 73.3 | – | COCc1cc(-c2nnc3c4ccccc4c(OCc4ccc(C(=O)N5CC(OC)C5)cn4)nn23)no1 [Compound 42] |
| < 0.5 | 0.62 (≈ 1.44 µM) | – | – | CCNC(=O)c1ccc(COc2nn3c(-c4cc(C)on4)nnc3c3ccccc23)nc1 [drawing 164, reference compound] |
